Tests used:
[1] = target: T1, ratAChE (Rattus norvegicus, UniProt P37136); assay: biochemical; conditions: for SI: Selectivity Index = IC50 (BuChE)/IC50 (AChE), rat enzymes; for IC50: from 5% rat cortex homogenate, read-out: IC50 ± SD ratAChE
T1 construct: AChE from 5% rat cortex homogenate or human erythrocytes (Sigma Co.); from tissue; host or cells: 5% rat cortex homogenate
T1 sequence (P37136 32-614): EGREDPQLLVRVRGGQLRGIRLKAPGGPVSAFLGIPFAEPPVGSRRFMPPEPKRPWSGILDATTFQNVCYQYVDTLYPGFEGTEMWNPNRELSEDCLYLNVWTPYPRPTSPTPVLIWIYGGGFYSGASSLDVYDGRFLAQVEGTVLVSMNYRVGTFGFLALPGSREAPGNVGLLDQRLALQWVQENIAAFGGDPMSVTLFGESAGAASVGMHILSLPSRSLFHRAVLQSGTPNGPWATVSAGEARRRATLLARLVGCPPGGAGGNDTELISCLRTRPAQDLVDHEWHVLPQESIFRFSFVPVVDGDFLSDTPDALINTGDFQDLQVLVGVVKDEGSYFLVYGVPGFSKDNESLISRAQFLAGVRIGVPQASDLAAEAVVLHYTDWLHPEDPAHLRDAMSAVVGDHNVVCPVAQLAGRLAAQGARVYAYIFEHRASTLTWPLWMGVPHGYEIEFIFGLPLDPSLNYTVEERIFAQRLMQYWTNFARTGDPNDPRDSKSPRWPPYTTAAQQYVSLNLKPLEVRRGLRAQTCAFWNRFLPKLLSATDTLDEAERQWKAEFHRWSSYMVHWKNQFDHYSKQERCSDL
Procedure: (§1) The AChE and BuChE inhibitory activities of the synthesised compounds were evaluated using the Ellman assay with slight modification. AChE from 5% rat cortex homogenate or human erythrocytes (Sigma Co.). BuChE from rat serum or human serum (Sigma Co.).

[2] = target: T2, ratBuChE (Rattus norvegicus, UniProt Q9JKC1); assay: ratBuChE inhibition, modified Ellman's method; assay type: biochemical
T2 construct: BuChE from rat serum or human serum (Sigma Co.); from tissue; host or cells: rat serum
Procedure: as §1

[3] = Trolox as standard
Procedure: The skeleton compounds naringenin and apigenin were also evaluated for comparison purposes, and vitamin E analogue Trolox was used as a standard.
The antioxidant potency of target compounds was tested using an oxygen radical absorbance capacity fluorescein (ORAC-FL) assay.

T2 sequence (Q9JKC1 24-597): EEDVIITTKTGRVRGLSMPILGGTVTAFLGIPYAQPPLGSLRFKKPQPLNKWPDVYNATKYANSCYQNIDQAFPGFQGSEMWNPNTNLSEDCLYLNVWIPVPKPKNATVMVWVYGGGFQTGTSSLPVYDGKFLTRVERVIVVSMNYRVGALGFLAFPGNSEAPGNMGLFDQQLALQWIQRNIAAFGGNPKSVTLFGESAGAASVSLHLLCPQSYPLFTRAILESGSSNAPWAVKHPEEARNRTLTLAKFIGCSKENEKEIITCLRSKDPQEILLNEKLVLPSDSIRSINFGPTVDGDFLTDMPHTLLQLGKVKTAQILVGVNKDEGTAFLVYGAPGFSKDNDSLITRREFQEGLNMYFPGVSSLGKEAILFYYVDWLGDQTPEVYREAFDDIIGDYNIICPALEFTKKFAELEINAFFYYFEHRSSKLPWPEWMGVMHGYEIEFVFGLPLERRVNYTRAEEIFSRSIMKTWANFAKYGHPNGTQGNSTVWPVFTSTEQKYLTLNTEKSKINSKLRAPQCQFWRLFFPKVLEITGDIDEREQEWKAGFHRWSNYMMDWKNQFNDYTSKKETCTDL

Row | SMILES | SI [1] | IC50 [1] [µM] | IC50 [2] [µM] | ORAC [3]
1 | O=C1CC(c2ccc(O)cc2)Oc2cc(OCCCCN3CCCCC3)cc(O)c21 (centres unmarked) [Compound 5a, 5-hydroxy-2–(4-hydroxyphenyl)-7–(4-(piperidin-1-yl)butoxy)chroman-4-one] | 3.1 | 6.7 ± 0.31 | 20.9 ± 0.68 | 2.2 ± 0.03 μM of Trolox equivalent/μM of tested compound
2 | O=C1CC(c2ccc(O)cc2)Oc2cc(OCCCCN3CCc4ccccc4C3)cc(O)c21 (centres unmarked) [Compound 5b, 7–(4-(3,4-dihydroisoquinolin-2(1H)-yl)butoxy)-5-hydroxy-2–(4-hydroxyphenyl)chroman-4-one] | 3.0 | 5.8 ± 0.19 | 17.4 ± 0.52 | 2.1 ± 0.04 μM of Trolox equivalent/μM of tested compound
3 | CCN(CCCCOc1cc(O)c2c(c1)OC(c1ccc(O)cc1)CC2=O)Cc1ccccc1 (centres unmarked) [Compound 5c, 7–(4-(benzyl(ethyl)amino)butoxy)-5-hydroxy-2–(4-hydroxyphenyl)chroman-4-one] | 5.8 | 3.9 ± 0.44 | 22.6 ± 0.23 | 2.3 ± 0.02 μM of Trolox equivalent/μM of tested compound
4 | CCN(CCCCOc1cc(O)c2c(c1)OC(c1ccc(O)cc1)CC2=O)Cc1ccccc1OC (centres unmarked) [Compound 5d, 7–(4-(ethyl(2-methoxybenzyl)amino)butoxy)-5-hydroxy-2–(4-hydroxyphenyl)chroman-4-one] | 9.1 | 2 ± 0.46 | 18.1 ± 0.56 | 2.2 ± 0.02 μM of Trolox equivalent/μM of tested compound
5 | O=C1CC(c2ccc(O)cc2)Oc2cc(OCCCCN3CCN(Cc4ccccc4)CC3)cc(O)c21 (centres unmarked) [Compound 5e, 7–(4-(4-benzylpiperazin-1-yl)butoxy)-5-hydroxy-2–(4-hydroxyphenyl)chroman-4-one] | 1.4 | 9.2 ± 0.72 | 13.2 ± 0.43 | 2.5 ± 0.01 μM of Trolox equivalent/μM of tested compound
6 | O=C1CC(c2ccc(O)cc2)Oc2cc(OCCCCCN3CCC(Cc4ccccc4)CC3)cc(O)c21 (centres unmarked) [Compound 5g, 7-((5–(4-benzylpiperidin-1-yl)pentyl)oxy)-5-hydroxy-2–(4-hydroxyphenyl)chroman-4-one] | 7.5 | 2.5 ± 0.33 | 18.7 ± 0.33 | 2.1 ± 0.02 μM of Trolox equivalent/μM of tested compound
7 | CCN(CCCCCCOc1cc(O)c2c(c1)OC(c1ccc(O)cc1)CC2=O)Cc1ccccc1 (centres unmarked) [Compound 5h, 7-((6-(benzyl(ethyl)amino)hexyl)oxy)-5-hydroxy-2–(4-hydroxyphenyl)chroman-4-one] | 4.7 | 3.3 ± 0.09 | 15.5 ± 0.52 | 2.3 ± 0.03 μM of Trolox equivalent/μM of tested compound
8 | CCN(CCCCCCCCCCOc1cc(O)c2c(c1)OC(c1ccc(O)cc1)CC2=O)Cc1ccccc1 (centres unmarked) [Compound 5i, 7-((10-(benzyl(ethyl)amino)decyl)oxy)-5-hydroxy-2–(4-hydroxyphenyl)chroman-4-one] | 3.0 | 4.9 ± 0.16 | 14.7 ± 0.62 | 2.1 ± 0.04 μM of Trolox equivalent/μM of tested compound
9 | CCN(CCCCCCCCCCCCOc1cc(O)c2c(c1)OC(c1ccc(O)cc1)CC2=O)Cc1ccccc1 (centres unmarked) [Compound 5j, 7-((12-(benzyl(ethyl)amino)dodecyl)oxy)-5-hydroxy-2–(4-hydroxyphenyl)chroman-4-one] |  | 6.5 ± 0.09 | 15.9 ± 0.37 | 2.2 ± 0.05 μM of Trolox equivalent/μM of tested compound
10 | O=C1CC(c2ccc(OCCCN3CCc4ccccc4C3)cc2)Oc2cc(OCCCN3CCc4ccccc4C3)cc(O)c21 (centres unmarked) [Compound 7a, 7–(3-(3,4-dihydroisoquinolin-2(1H)-yl)propoxy)-2–(4-(3–(3,4-dihydroisoquinolin-2(1H)-yl)propoxy)phenyl)-5-hydroxychroman-4-one] | 2.0 | 10.1 ± 0.41 | 20.2 ± 0.23 | 1.1 ± 0.02 μM of Trolox equivalent/μM of tested compound
11 | CCN(CCCOc1ccc(C2CC(=O)c3c(O)cc(OCCCN(CC)Cc4ccccc4)cc3O2)cc1)Cc1ccccc1 (centres unmarked) [Compound 7b, 7–(3-(benzyl(ethyl)amino)propoxy)-2–(4-(3-(benzyl(ethyl)amino)propoxy)phenyl)-5-hydroxychroman-4-one] | 2.5 | 7.4 ± 0.29 | 18.7 ± 0.37 | 1.2 ± 0.04 μM of Trolox equivalent/μM of tested compound
12 | O=C1CC(c2ccc(OCCCN3CCC(Cc4ccccc4)CC3)cc2)Oc2cc(OCCCN3CCC(Cc4ccccc4)CC3)cc(O)c21 (centres unmarked) [Compound 7c, 7–(3-(4-benzylpiperidin-1-yl)propoxy)-2–(4-(3–(4-benzylpiperidin-1-yl)propoxy)phenyl)-5-hydroxychroman-4-one] | 2.9 | 6.7 ± 0.16 | 19.4 ± 0.28 | 1.2 ± 0.02 μM of Trolox equivalent/μM of tested compound
13 | O=C1CC(c2ccc(OCCCN3CCC(c4ccccc4)CC3)cc2)Oc2cc(OCCCN3CCC(c4ccccc4)CC3)cc(O)c21 (centres unmarked) [Compound 7d, 5-hydroxy-7–(3-(4-phenylpiperidin-1-yl)propoxy)-2–(4-(3–(4-phenylpiperidin-1-yl)propoxy)phenyl)chroman-4-one] | 2.2 | 9.3 ± 0.37 | 20.3 ± 0.26 | 1.0 ± 0.03 μM of Trolox equivalent/μM of tested compound
14 | CCN1CCN(CCCOc2ccc(C3CC(=O)c4c(O)cc(OCCCN5CCN(CC)CC5)cc4O3)cc2)CC1 (centres unmarked) [Compound 7e, 7–(3-(4-ethylpiperazin-1-yl)propoxy)-2–(4-(3–(4-ethylpiperazin-1-yl)propoxy)phenyl)-5-hydroxychroman-4-one] | 1.9 | 8.2 ± 0.47 | 15.8 ± 0.62 | 1.5 ± 0.02 μM of Trolox equivalent/μM of tested compound
15 | O=C1CC(c2ccc(OCCCCN3CCc4ccccc4C3)cc2)Oc2cc(OCCCCN3CCc4ccccc4C3)cc(O)c21 (centres unmarked) [Compound 7f, 7–(4-(3,4-dihydroisoquinolin-2(1H)-yl)butoxy)-2–(4-(4–(3,4-dihydroisoquinolin-2(1H)-yl)butoxy)phenyl)-5-hydroxychroman-4-one] | 3.8 | 5.4 ± 0.16 | 20.7 ± 0.55 | 1.1 ± 0.03 μM of Trolox equivalent/μM of tested compound
16 | CCN(CCCCOc1ccc(C2CC(=O)c3c(O)cc(OCCCCN(CC)Cc4ccccc4)cc3O2)cc1)Cc1ccccc1 (centres unmarked) [Compound 7g] | 11.2 | 1.4 ± 0.08 | 15.7 ± 0.29 | 1.2 ± 0.04 μM of Trolox equivalent/μM of tested compound
17 | CCN(CCCCOc1ccc(C2CC(=O)c3c(O)cc(OCCCCN(CC)Cc4ccccc4OC)cc3O2)cc1)Cc1ccccc1OC (centres unmarked) [Compound 7h, 7–(4-(ethyl(2-methoxybenzyl)amino)butoxy)-2–(4-(4-(ethyl(2-methoxybenzyl)amino)butoxy)phenyl)-5-hydroxychroman-4-one] | 19.7 | 0.86 ± 0.05 | 16.9 ± 0.34 | 1.0 ± 0.04 μM of Trolox equivalent/μM of tested compound
18 | O=C1CC(c2ccc(OCCCCN3CCN(Cc4ccccc4)CC3)cc2)Oc2cc(OCCCCN3CCN(Cc4ccccc4)CC3)cc(O)c21 (centres unmarked) [Compound 7i, 7–(4-(4-benzylpiperazin-1-yl)butoxy)-2–(4–(4-(4-benzylpiperazin-1-yl)butoxy)phenyl)-5-hydroxychroman-4-one] | 2.0 | 6.1 ± 0.21 | 12.3 ± 0.16 | 1.4 ± 0.03 μM of Trolox equivalent/μM of tested compound
19 | O=C1CC(c2ccc(OCCCCN3CCC(Cc4ccccc4)CC3)cc2)Oc2cc(OCCCCN3CCC(Cc4ccccc4)CC3)cc(O)c21 (centres unmarked) [Compound 7j] | 11.2 | 1.3 |  | 1.1 ± 0.03 μM of Trolox equivalent/μM of tested compound
20 | CCN(CCCCCCOc1ccc(C2CC(=O)c3c(O)cc(OCCCCCCN(CC)Cc4ccccc4)cc3O2)cc1)Cc1ccccc1 (centres unmarked) [Compound 7l] | 6.9 | 2.2 ± 0.13 | 15.1 ± 0.28 | 1.2 ± 0.01 μM of Trolox equivalent/μM of tested compound
21 | O=c1cc(-c2ccc(OCCCN3CCc4ccccc4C3)cc2)oc2cc(OCCCN3CCc4ccccc4C3)cc(O)c12 [Compound 10a, 7–(3-(3,4-dihydroisoquinolin-2(1H)-yl)propoxy)-2–(4-(3–(3,4-dihydroisoquinolin-2(1H)-yl)propoxy)phenyl)-5-hydroxy-4H-chromen-4-one] | 2.1 | 8.1 ± 0.27 | 16.8 ± 0.36 | 1.1 ± 0.01 μM of Trolox equivalent/μM of tested compound
22 | CCN(CCCOc1ccc(-c2cc(=O)c3c(O)cc(OCCCN(CC)Cc4ccccc4)cc3o2)cc1)Cc1ccccc1 [Compound 10b, 7–(3-(benzyl(ethyl)amino)propoxy)-2–(4-(3-(benzyl(ethyl)amino)propoxy)phenyl)-5-hydroxy-4H-chromen-4-one] | 4.3 | 4.3 ± 0.38 | 18.6 ± 0.24 | 1.0 ± 0.04 μM of Trolox equivalent/μM of tested compound
